Test results from patent US4000280A, “Pharmaceutical compositions containing an amphetamine derivative for the alleviation of anxiety or treatment of depression” (Astra Lakemedel Aktiebolag, priority 1975, dated 1976).

Tests used:
mice = experiment: Motor activity in mice (exploratory activity in locomotion cage); format: in vivo; set-up: key to Motor Activity: +: increase; -: decrease; 0: no effect; conditions: for Motor Activity: recorded for 10 minutes 1 hour after administration, compared to control groups, i.p.; for central stimulation (in words): motor activity in mice
Experimental: The lack of euphoric effects, that is lack of central stimulatory activity, is tested by measuring the motor activity in mice after administration of the test substance.
The exploratory activity of mice was recorded in a locomotion cage in which the movements were counted each time the animals cross-circuits an electrical current in the bottom plate. The activity was recorded for 10 minutes 1 hour after the administration of the drug. The animals were tested individually. Groups of six mice were used and the mice were only used once. The activity was expressed in percent of the activity of control groups ran simultaneously. The compounds were administered in at least four doses. The increase (+) or decrease (-) of the activity compared to control groups was determined from log dose response curves.

5-HTP response = 5-HTP response potentiation test (potentiation of behavioral syndrome after dl-5-HTP); format: in vivo, mice; conditions: Mus musculus, ip; dl-5-HTP 90 mg/kg i.v.; at least five doses; probit analysis (Litchfield and Wilcoxon)
From the text: It is not possible by experimental means to induce depressions in laboratory animals. In order to evaluate a possible anti depressive effect on new substances biochemical-pharmacological test methods must be resorted to. One such method, which seems to give a good indication of the potential anti depressive effects of the test substances, is described in Europ. J. Pharmacol. 17, 107, 1972. This method involves the measurement of the potentiation of the syndromes produced by 5-hydroxytryptophan (5-HTP) in a laboratory animal.
Inhibition of the uptake of 5-HT potentiates the effects of administered 5-hydroxytryptophan (5-HTP) probably by increasing the amount of 5-HT at the receptor. Three mice are given the test drugs 1 hour (or 4, 24 hours) before dl-5-HTP, 90 mg/kg i.v. 5-HTP alone gives only a weak behavioral syndrome but in pretreated mice there is seen a characteristic behavioral syndrome, which comes within 5 minutes: tremor, lordosis, abduction of the hind-legs, head-twitches.
The absence or presence of respective syndrome is scored in groups of 10 mice. The compound was administered in at least five doses and the quantal responses were analysed by probit analysis and ED50 determined according to the method of Litchfield and Wilcoxon.

isolated mice = experiment: Aggressive behavior in isolated male mice (antiaggressive activity); format: in vivo; conditions: Mus musculus, ip, 5 min; i.p.; dose which reduces the aggressiveness score by 50%; 5 min test; read-out: Antiaggressive behaviour in mice ED50
Experimental: Potential anxiolytic activity is tested by measuring the antiaggressivity in isolated mice after administration of the test substance. In this test not amphetamine but Valium -- a well-known anxiolytic substance -- is used as a reference.
Male mice kept isolated for 3 weeks or longer develop an aggressive behavior when caged together. The method used follows that of Valzelli et al. (Europ. J. Pharmacol. 2, 144, 1967), with the exception that two mice were tested on each other. The aggressiveness was scored during a 5 min test according to the following schedule:
0 the animals show no interest in each other except occasional nosing
25 frequent vigorous nosing and tail rattling, the animals assume a fighting position and occasionally attack each other -- no more than 3-4 times in the 5 min period
50 tail rattling, powerful attacks -- no more than 10 times in the test period
75 the animals follow their partners, attacking and biting for most of the time
100 attacks over the entire period.
The animals were used for several experiments but with intervals of at least 1 week. Groups of 10 mice were used.
ED50 is the dose which reduces the aggressiveness score by 50%.

With CC(N)Cc1c(Cl)cc(N(C)C)cc1Cl.Cl.Cl (stereo not drawn) [2-Cl 6-Cl CH3 CH3 H CH3, 2,6-Dichloro-4-dimethylamino-α-methylphenethylamine dihydrochloride] the “Motor Activity” value (mice) was “-”.

In the case of CC(N)Cc1ccccc1 (stereo not shown) [Amphetamine], the “central stimulation (in words)” value (mice) is reported as “pronounced”.

Cc1cc(N(C)C)ccc1CC(C)N.Cl.Cl (stereo not drawn) [H 2-CH 3 CH3 CH3 H CH3, 2-Methyl-4-dimethylamino-α-methylphenethylamine dihydrochloride] was tested, and the “Motor Activity” value (mice) was “-”.

With CCC(N)Cc1ccc(N(C)C)cc1Cl (stereo not shown) [H 2-Cl CH3 CH3 H C2 H5] the “Motor Activity” value (mice) was 0.

In the case of CC(N)Cc1ccc(N(C)C)cc1Cl.Cl.Cl (stereo not drawn) [H 2-Cl CH3 CH3 H CH3, 2-Chloro-4dimethylamino-α-methylphenethylamine dihydrochloride], the “Motor Activity” value (mice) is reported as “-”.

CCN(CC)c1ccc(CC(C)N)cc1 (stereo not shown) [H H C2 H5 C2 H5 H CH3] was tested, and the “Motor Activity” value (mice) was “-”.

CC(N)Cc1ccc2c(c1)CCCN2C.Cl.Cl (stereo not shown) [H H CH3 (CH2)3 H CH3, 6-(2-Aminopropyl)-1-methyl-1,2,3,4-tetrahydroquinoline dihydrochloride] was tested, and the ED50 (5-HTP response) was 1.5 mg/kg and the ED50 (isolated mice) was greater than 5 mg/kg.

In the case of CN(C)c1ccc(CC(C)(C)N)cc1.Cl.Cl [H H CH3 CH3 CH3 CH3, 4-Dimethylamino-α, α-dimethylphenethylamine dihydrochloride], the “Motor Activity” value (mice) is reported as 0.

CC(N)Cc1ccc(Cl)cc1 (stereo not shown) [P-Chloroamphetamine, reference compound] was tested, and the “central stimulation (in words)” value (mice) was “pronounced”.
